Data: ChEMBL document CHEMBL5233248, “Resveratrol - A comprehensive review of recent advances in anticancer drug design and development” (Eur J Med Chem, 2020)
pIC50: −log10 of the molar value. Values joined by “and” are separate entries in the source; they are usually repeats but may differ in a detail not shown here. Equal entries are not always repeated. Structures can show the parent of a compound that is named as a salt.

Tests used:
[1] = Anticancer activity against human AZ-AHR cells assessed as cell growth inhibition incubate for 24 hrs by MTT assay; type: functional, cell-based
B16-F10 [2] = experiment: Anti cancer activity against mouse B16-F10 cells assessed as cell growth inhibition incubated for 40 hrs by Almar Blue stained fluorescence-based assay; type: functional; conditions: B16-F10, 40 h
PANC-1 [3] = experiment: Anticancer activity against human PANC-1 cells assessed as cell growth inhibition incubated for 48 hrs by SRB assay; type: functional; conditions: Homo sapiens, PANC-1, 48 h
HT-29 [4] = experiment: Anticancer activity against human HT-29 cells assessed as cell growth inhibition incubated for 3 days by MTT assay; type: functional, cell-based; conditions: HT-29, 72 h
MCF7 [5] = experiment: Anticancer activity against human MCF7 cells assessed as cell growth inhibition incubated for 3 days by MTT assay; type: functional, cell-based; conditions: MCF7, 72 h
HEK293 = experiment: Anticancer activity against human HEK293 cells assessed as cell growth inhibition incubated for 3 days by MTT assay; type: functional, cell-based; conditions: HEK293, 72 h
MCF7 [6] = experiment: Anticancer activity against human MCF7 cells assessed as cell growth inhibition incubated for 48 hrs by MTS assay; type: functional, cell-based; conditions: MCF7, 48 h
[7] = Cytotoxicity activity against human CCD-1059Sk cells assessed as cell growth inhibition incubated for 48 hrs by MTS assay; type: toxicity, cell-based
in vitro = conditions: human, CCD-1059Sk cells and MCF7 cells
Description: Selectivity index, ratio of IC50 for cytotoxicity against CCD-1059Sk cells to IC50 for antiproliferative activity against MCF7 cells

MDA-MB-231 [8] = experiment: Anticancer activity against human MDA-MB-231 cells assessed as reduction in cell viability measured after 48 hrs at 150 uM by MTT assay relative to control; type: functional
HT-29 [9] = experiment: Anticancer activity against human HT-29 cells assessed as cell growth inhibition incubated for 24 hrs by MTT assay; type: functional, cell-based; conditions: ht-29
HepG2 = experiment: Anticancer activity against human HepG2 cells assessed as cell growth inhibition incubated for 24 hrs by MTT assay; type: functional, cell-based; conditions: HepG2, 24 h
SK-BR-3 = experiment: Anticancer activity against human SK-BR-3 cells assessed as cell growth inhibition incubated for 24 hrs by MTT assay; type: functional, cell-based; conditions: SK-BR-3, 24 h
HeLa = experiment: Anticancer activity against human HeLa cells assessed as cell growth inhibition measured after 72 hrs by MTT assay; type: functional, cell-based; conditions: for pIC50: Homo sapiens, HeLa, 72 h, read-out: IC50
A549 = experiment: Anticancer activity against human A549 cells assessed as cell growth inhibition measured after 72 hrs by MTT assay; type: functional, cell-based
[10] = Anticancer activity against Lung adenocarcinoma cell line assessed as cell growth inhibition measured after 72 hrs by MTT assay; type: functional, cell-based; conditions: Lung adenocarcinoma cell line, 72 h
U-251 = experiment: Anticancer activity against human U-251MG cells assessed as cell growth inhibition by CyQuant assay; type: functional, cell-based
MDA-MB-231 [11] = experiment: Anticancer activity against human MDA-MB-231 cells assessed as cell growth inhibition by CyQuant assay; type: functional, cell-based
MCF7 [12] = experiment: Anticancer activity against human MCF7 cells assessed as cell growth inhibition by CyQuant assay; type: functional, cell-based
PANC-1 [13] = experiment: Anticancer activity against human PANC-1 cells assessed as cell growth inhibition by CyQuant assay; type: functional, cell-based
[14] = Cytotoxicity against mouse NIH3T3 cells assessed as cell growth inhibition by CyQuant assay; type: toxicity, cell-based
B16-F10 [15] = experiment: Anti cancer activity against mouse B16-F10 cells assessed as cell growth inhibition incubated for 40 hrs by Almar Blue stained fluorescence-based assay relative to control; type: functional
HCT-116 = experiment: Anticancer activity against human HCT-116 cells assessed as cell growth inhibition; type: functional, cell-based
Aromatase = target: T1, Aromatase (Homo sapiens, UniProt P11511)
T1 sequence (P11511 whole entry): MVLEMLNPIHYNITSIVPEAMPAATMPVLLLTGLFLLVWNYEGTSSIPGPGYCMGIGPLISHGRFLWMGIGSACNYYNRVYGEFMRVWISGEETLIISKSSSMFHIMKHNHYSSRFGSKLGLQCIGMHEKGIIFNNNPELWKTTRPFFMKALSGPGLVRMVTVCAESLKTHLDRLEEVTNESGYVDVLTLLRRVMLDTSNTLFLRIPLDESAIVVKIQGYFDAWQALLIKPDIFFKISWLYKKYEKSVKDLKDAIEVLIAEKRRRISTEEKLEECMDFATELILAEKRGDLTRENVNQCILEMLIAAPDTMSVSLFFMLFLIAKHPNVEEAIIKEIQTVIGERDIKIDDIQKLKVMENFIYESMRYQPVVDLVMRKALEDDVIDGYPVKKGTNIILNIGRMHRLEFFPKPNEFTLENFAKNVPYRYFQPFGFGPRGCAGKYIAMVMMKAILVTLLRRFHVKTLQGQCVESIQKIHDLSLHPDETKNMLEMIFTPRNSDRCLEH
Description: Inhibition of human Aromatase

CYP1A = CYP1A (Homo sapiens, UniProt P04798+P05177); experiment: Inhibtion of CYP1A (unknown origin); type: ADME, protein assay

Oc1cc(O)cc(/C=C\c2ccc(O)c(O)c2)c1
pIC50 [1]: 5.11

COc1ccc(/C=C/c2ccc(OC)c(OC)c2)cc1
pIC50 (B16-F10 [2]): 6.00

COc1ccc(-c2nnc(SCC(=O)Oc3ccc(/C=C/c4cc(OC)cc(OC)c4)cc3)o2)cc1
GI50 (PANC-1 [3]): 0.064 µM

COc1cc(/C=C/c2ccc(OC(=O)CSc3nnc(-c4cnccn4)o3)cc2)cc(OC)c1
GI50 (PANC-1 [3]): 0.064 µM

CCCCCCCC(=O)OC[C@H]1O[C@@H](Oc2cc(O)cc(/C=C/c3ccc(O)cc3)c2)[C@H](O)[C@@H](O)[C@@H]1O
pIC50 (HT-29 [4]): 4.41
pIC50 (MCF7 [5]): 4.28
pIC50 (HEK293): < 4.00

COc1cc(/C=C/C(=O)N/N=C/c2ccc(O)c(OC)c2)ccc1O
pIC50 (MCF7 [6]): 3.89
IC50 at 48 h [7]: 74.6 µM
selectivity ratio (in vitro): 1.73

CCCC(=O)Oc1ccc(/C=C/c2cc(O)cc(O)c2)cc1
Activity (MDA-MB-231 [8]): 14.14%

COc1cc(/C=C/c2ccc(NC(=O)CSc3nnc(-c4ccc(C)cc4)o3)cc2)cc(OC)c1
GI50 (PANC-1 [3]): 0.064 µM

COC(=O)c1cc(/C=C/c2cc(O)cc(O)c2)ccc1O
pIC50 (HT-29 [9]): 4.35 and 4.72
pIC50 (HepG2): 4.72
pIC50 (SK-BR-3): 4.95

CC(=O)Oc1ccc(/C=C/c2cc(OC(C)=O)cc(OC(C)=O)c2)cc1 [TRIACETYLRESVERATROL]
pIC50 (HeLa): 5.47
IC50 (HeLa; time 72 hrs): 20.14 µM
pIC50 (A549; a549): 5.47 and 5.03
pIC50 [10]: 5.47

COc1cc(/C=C/c2ccc(OC(=O)CSc3nnc(-c4ccc(C)cc4)o3)cc2)cc(OC)c1
GI50 (PANC-1 [3]): 0.064 µM

COc1cc(/C=C/c2ccc(OC(C)=O)cc2)cc(OC)c1
pIC50 (U-251): 5.17
pIC50 (MDA-MB-231 [11]): 4.73
pIC50 (MCF7 [12]): 4.97
pIC50 (PANC-1 [13]): 4.74
pIC50 [14]: < 4.70

COc1ccc(/C=C\c2cc(OC)c(OC)c(OC)c2)cc1
pIC50 (B16-F10 [2]): 6.00
inhibition (INH) (B16-F10 [15]): 80%

COc1ccc(/C=C/c2cc(OC)c(OC)c(OC)c2)cc1
pIC50 (HCT-116): 5.96

COc1cc(/C=C/c2ccc(OC(=O)CSc3nnc(-c4ccc(F)cc4)o3)cc2)cc(OC)c1
GI50 (PANC-1 [3]): 0.064 µM

COc1cccc2c1C(=O)c1c(O)c3c(c(O)c1C2=O)C[C@@](O)(C(=O)CO)C[C@@H]3O[C@H]1C[C@H](N)[C@H](O)[C@H](C)O1 [DOXORUBICIN HYDROCHLORIDE]
pIC50 (HeLa): 6.32
pIC50 (A549; Homo sapiens, A549, 72 h): 5.63
pIC50 [10]: 5.93

COc1cc(/C=C/c2ccc(OC(=O)CSc3nnc(-c4cc(OC)c(OC)c(OC)c4)o3)cc2)cc(OC)c1
GI50 (PANC-1 [3]): 0.064 µM

Oc1cc(O)cc(/C=C/c2ccc(OCc3ccccc3)cc2)c1
pIC50 (HeLa): 5.08
pIC50 (A549; Homo sapiens, A549, 72 h): 4.58
pIC50 [10]: 5.03

COc1ccc(/C=N/NC(=O)/C=C/c2ccc(O)c(OC)c2)cc1
pIC50 (MCF7 [6]): 4.72
IC50 at 48 h [7]: 158 µM
selectivity ratio (in vitro): 3.9

OC[C@H]1O[C@@H](Oc2cc(O)cc(/C=C/c3ccc(O)cc3)c2)[C@H](O)[C@@H](O)[C@@H]1O [PICEID]
pIC50 (HT-29 [4]): 4.74
pIC50 (MCF7 [5]): 4.42
pIC50 (HEK293): < 4.00

COc1cc(/C=C/c2ccc(NC(=O)CSc3nnc(-c4ccc(F)cc4)o3)cc2)cc(OC)c1
GI50 (PANC-1 [3]): 0.064 µM

COc1cc(/C=C/c2ccc(NC(=O)CSc3nnc(-c4ccc(C(F)(F)F)cc4)o3)cc2)cc(OC)c1
GI50 (PANC-1 [3]): 0.064 µM

COc1cc(/C=C/c2ccc(NC(=O)CSc3nnc(-c4cnccn4)o3)cc2)cc(OC)c1
GI50 (PANC-1 [3]): 0.064 µM

Oc1ccc(/C=C/c2cc(O)cc(OCc3ccccc3)c2)cc1
pIC50 (Aromatase): 5.57
pIC50 (CYP1A): 6.85
pIC50 (HeLa): 5.85
pIC50 (A549; Homo sapiens, A549, 72 h): 4.93
pIC50 [10]: 5.10

COc1cc(/C=C/c2ccc(NC(=O)CSc3nnc(-c4ccccc4F)o3)cc2)cc(OC)c1
GI50 (PANC-1 [3]): 0.064 µM
